Experimental data from article PMC7243741 (Bioorganic & medicinal chemistry letters, 2019).

Assays:
[1] = tested on: PPARγ phosphorylation at S273; type: cell-based, mouse; conditions: 3T3-L1 differentiated adipocytes, in the presence of TNFα, compounds at 10 μM, Western blot with pSer273-specific antibody
[2] = target: T1, GST-tagged PPARγ ligand-binding domain (PPARγ LBD) (Homo sapiens, UniProt P37231); assay: In vitro competition binding assay
T1 sequence (P37231 238-503 limits assumed): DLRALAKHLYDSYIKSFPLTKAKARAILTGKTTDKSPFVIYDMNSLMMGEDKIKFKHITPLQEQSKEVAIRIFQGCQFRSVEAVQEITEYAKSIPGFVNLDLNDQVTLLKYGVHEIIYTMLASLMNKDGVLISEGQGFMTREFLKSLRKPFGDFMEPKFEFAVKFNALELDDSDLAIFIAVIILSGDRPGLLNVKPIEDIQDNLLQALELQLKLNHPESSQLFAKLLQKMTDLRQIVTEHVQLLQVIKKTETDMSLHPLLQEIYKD

[3] = target: T1, GST-tagged PPARγ ligand-binding domain (PPARγ LBD); assay: biochemical
3T3-L1 cells = assay: Oil Red O staining of 3T3-L1 adipocyte differentiation; type: cell-based, mouse; conditions: 3T3-L1 in differentiation media, compounds at 10 μM

Q: For `COc1cc(CNC(=O)c2ccc3c(c2)c(C)c(C)n3Cc2ccc(-c3ccccc3C(=O)O)cc2)ccc1O` [Compound 2e, 4’-((5-((4-Hydroxy-3-methoxybenzyl)carbamoyl)-2,3-dimethyl-1H-indol-1-yl)methyl)-[1,1’-biphenyl]-2-carboxylic acid], which “Inhibition of PPARγ S273 phosphorylation” value [1] is on record?
A: significantly inhibited

Q: And the “fold improvement in PPARγ binding potency compared to parental compound UHC1” value ([2]; ratio of IC50 vs UHC1)?
A: over 30 fold

Q: With `Cc1cc(C(=O)NCc2cccc(O)c2)ccc1NCc1ccc(-c2ccccc2C(=O)O)cc1` [Compound 5, 4’-(((4-((3-Hydroxybenzyl)carbamoyl)-2-methylphenyl)amino)methyl)-[1,1’-biphenyl]-2-carboxylic acid] as the molecule, how does the IC50 [2] read?
A: 325 nM

Q: What about the Ki [3] of the same molecule?
A: 254 nM

Q: With `Cc1c(C)n(Cc2ccc(-c3ccccc3C(=O)O)cc2)c2ccc(C(=O)NCc3cccnc3)cc12` [UHC1, reference compound] as the molecule, how does the “Inhibition of PPARγ S273 phosphorylation” value [1] read?
A: significantly inhibited

Q: What about the “Adipocyte differentiation (Oil Red O staining of lipid droplets)” value (3T3-L1 cells) of the same molecule?
A: significantly reduced Oil Red O staining
